The subject of this test is Aβ1-42-injected mice (short-term spatial memory). Description: Alzheimer's disease mouse model using intrahippocampal injection of oligomers of amyloid beta; forced alternation Y-maze test. Format: in vivo, C57BL6 mice. To be noted: for Cumulative duration (sec) in the new arm of the Y-maze: Aβ1-42 (2 μL/side, 100 μM) injected mice, n = 12, daily treatment, Compounds 5 mg/kg p.o., Donepezil 1 mg/kg i.p., group mean, Aβ1-42 + vehicle group 78.9, sham 115.5.

Where [1] appears, read: compared to Aβ1-42-injected, vehicle treated mice (group ID 2), 5 mg/kg p.o. daily.

Method: This study evaluated the cognitive functions of the mice after a chronic administration of the compounds, after the ApO injury.
The forced alternation Y-maze test relies on the natural tendency of rodents to explore new environments and was used to evaluate short-term spatial memory and exploratory behavior of injured mice.
18-month-old male C57BL6 mice (Janvier Labs) were housed for acclimatation for 1 week in Neuro-Sys facilities and were maintained in a reversed 12 h light-dark cycle. The animals were group-housed (2-4 animals per cage) and maintained in room with controlled temperature (21-22° C.) and hygrometry (40-60%) and with food and water available ad libitum.
After one week of acclimatization, all the mice were subjected to a bilateral hippocampal stereotaxic surgery determined relative to the bregma according to the Paxinos and Franklin's mouse brain atlas(Yeung et al. 2020).
The Aβ1-42 preparation were done following the procedure described by Callizot (Callizot et al. 2013). Briefly, Aβ1-42 peptide (Bachem, 1071428, CAS #107761-42-2) was dissolved in the vehicle (0.5% Methylcellulose in water (w/v)), at an initial concentration of 100 μM. This solution was gently agitated for 3 days at 37° C. in the dark.
After agitation, the Aβ1-42 preparation were bilaterally injected into the stratum oriens, striatum pyramidal and striatum radiatum of the CA1 area of the hippocampus at three different depths within the CA1 region. Stereotaxic bilateral administration of 2 μL/side of Aβ1-42 preparation (100 μM, containing ˜15 mol/L of oligomers precisely measured by automatic WB), or vehicle, were bilaterally injected with a Hamilton syringe in the CA 1 area of the hippocampus (0.2 μL/min with an Elite Nanomite syringe pump).
All treatments started the day before the stereotaxic injections of A31-42 and were administrated daily until the last day of the experiment at which point different tissue samples were collected.
Test compounds were administered by oral gavage (p.o.).
Preparation with vehicle 1: The required amount of the test compound was weighted and placed in a glass tube. The compound was dissolved in 0.5% Methylcellulose in water (w/v) corresponding to 100% of the final volume and vortexed. The formulation (glass vial) was placed in an ultrasonic bath for 30 min.
Preparation with vehicle 2: The required amount of the test compound was weighted and placed in a glass tube. The compound was dissolved in a volume PEG200 corresponding to 25% of the final volume (at 4× concentration). The preparation was aliquoted in tubes protected from light and stored at 4° C. Before administration, a volume of MC (0.5%, w/v in sterile water) corresponding to 75% of the final volume (for 1× concentration) was added to the preparation and vortexed. The formulation (glass vial) was placed in an ultrasonic bath for homogenization. The glass vial containing the preparation was kept under agitation and protected from light until administration.
The Y-maze was used to assess short term memory (working memory) in mice. Spatial reference memory, which is underlined by the hippocampus, was tested by placing the test mice into the Y-maze with one arm closed off during training. After an intertrial interval, the mouse should remember which arm it has not explored previously and should visit this arm more often (Kraeuter, Guest, and Samyai 2019).

On to `CN(C)S(=O)(=O)C1CN(c2cc3nn(-c4ccc(F)cc4)cc3cn2)C1` [Compound 14, 1-(2-(4-fluorophenyl)-2H-pyrazolo[4,3-c]pyridin-6-yl)-N,N-dimethylazetidine-3-sulfonamide], for which the “Cumulative duration (sec) in the new arm of the Y-maze” value worked out at 112.5 s. Moreover, the “Effect on short-term spatial memory (Y-maze), day 7 post-surgery” value under setting [1] is given as “significant beneficial effects”. Under “day 14 post-surgery, compared to Aβ1-42-injected, vehicle treated mice (group ID 2), 5 mg/kg p.o. daily”, the “Effect on short-term spatial memory (Y-maze), day 14 post-surgery” value was “significant beneficial effects”.

Consider `CN(C)S(=O)(=O)C1CN(c2ccc3cn(-c4ccccc4)nc3n2)C1` [Compound 66, N,N-dimethyl-1-(2-phenyl-2H-pyrazolo[3,4-b]pyridin-6-yl)azetidine-3-sulfonamide], for which the “Cumulative duration (sec) in the new arm of the Y-maze” value came out at 104.4 s. Moreover, the “Effect on short-term spatial memory (Y-maze), day 7 post-surgery” value under setting [1] was “significant beneficial effects”.

Source of the values: patent US20250304575A1, “COMPOUNDS AND PHARMACEUTICAL COMPOSITIONS THEREOF FOR THE TREATMENT OF NEURODEGENERATIVE DISORDERS” (Galapagos NV, priority 2022, published 2025).
